# US8981052B2, “JNK inhibitor molecules” (Xigen Inflammation Ltd., priority 2010, dated 2015)
# Where a SMILES comes first, the peptide text is derived from it. Where no end group is shown, it is not given here. [ ]: non-standard residue; d: D form.
# Columns and labels:
# [1] = Stability (half-life) of JNK inhibitors in human serum, UPLC-MS
# Description: The experiment was performed as described by Tugyi et al. (Proc Natl Acad Sci USA, 2005, 413-418). The remaining intact peptide was quantified by UPLC-MS.
# Hela cells = experiment: Internalization of TAT derived transporters, 24 hours incubation, fluorescence of cell extracts; type: cell-based; conditions: FIG. 6; Y in position 2
# Description: The transporter sequences analyzed correspond to SEQ ID NOs: 52-94 plus SEQ ID NOs: 45, 47, 46, 43 and 99 (FIG. 6a) and SEQ ID NOs: 100-147 (FIG. 6b). […] Hela cells were incubated 24 hours in 96 well plate with […] of the respective transporters. The cells were then washed twice with an acidic buffer (0.2M Glycin, 0.15M NaCl, pH 3.0) and twice with PBS. Cells were broken by the addition of RIPA lysis buffer. The relative amount of internalized peptide was then determined by reading the fluorescence intensity (Fusion Alpha plate reader; PerkinElmer) of each extract followed by background subtraction.
# Hela cells were incubated 24 hours in 96 well plate with […] of the r3-L-TAT-derived transporters. The cells were then washed twice with an acidic buffer (0.2M Glycin, 0.15M NaCl, pH 3.0) and twice with PBS. Cells were broken by the addition of RIPA lysis buffer. The relative amount of internalized peptide was then determined by reading the fluorescence intensity (Fusion Alpha plate reader; PerkinElmer) of each extract followed by background subtraction
# His-JNK1 = molecular target: T1, His-JNK1 (Homo sapiens, UniProt P45983); experiment: AlphaScreen assay, inhibition of JNK1 mediated phosphorylation of biotin-cJun substrate; type: biochemical; conditions: compared with L-TAT-IB1; JNK isoform not stated
# T1 construct: His; purchased Upstate 14-327
# T1 sequence (P45983 1-384 isoform P45983-2): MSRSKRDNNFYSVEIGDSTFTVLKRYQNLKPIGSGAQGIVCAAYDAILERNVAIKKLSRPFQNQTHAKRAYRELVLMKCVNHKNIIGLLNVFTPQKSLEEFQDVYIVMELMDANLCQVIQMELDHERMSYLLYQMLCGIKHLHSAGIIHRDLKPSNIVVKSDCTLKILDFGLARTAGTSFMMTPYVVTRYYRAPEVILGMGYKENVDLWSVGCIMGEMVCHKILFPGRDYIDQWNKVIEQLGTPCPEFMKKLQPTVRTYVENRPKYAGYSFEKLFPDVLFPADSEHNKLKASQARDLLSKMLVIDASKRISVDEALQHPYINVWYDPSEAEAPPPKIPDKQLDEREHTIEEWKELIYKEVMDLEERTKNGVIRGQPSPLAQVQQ
# Description: In the following the standard operating procedure will be set forth describing how the Inhibitory efficacy of JNK inhibitors according to the present invention was measured. The method allows to measure in vitro, in a non radioactive standardized assay, the ability of a candidate compound to decrease the phosphorylation of the c-Jun specific substrate by JNK. Moreover, it will be illustrated how to determine the inhibitory effect (IC50) and the Ki of a chosen compound for JNK.
# • His-JNK1 (ref 14-327, Upstate, 10 μg in 100 μl: concentration: 2.2 μM) 5 nM final • His-JNK2 (ref 14-329, Upstate, 10 μg in 100 μl: concentration: 2 μM) 5 nM final • His-JNK3 (ref 14-501, Upstate, 10 μg in 100 μl: concentration: 1.88 μM) 5 nM final • Anti-Phospho-cJun (ref 06-828, Upstate, lot DAM1503356, concentration: 44.5 μM) 10 nM final • Biotin-cJun (29-67): • sequence: Biotin-[…] […]
# The bioluminescent energy transfer was read on the Fusion Alpha Plate reader (Perkin Elmer). […]
# [2] = tested on: primary rat lymph-nodes purified T cells; experiment: CD3/CD28-induced IL-2 release in primary rat lymph-nodes purified T cells; type: cell-based; conditions: inhibitor added 1 h before CD3/CD28 (2 μg/mL), supernatant after 24 h
# Description: Control rat were sacrificed and lymph-nodes were harvested. T cells further were purified (using magnetic negative selection) and plated into 96-well plates at 200,000 cells/well. Cells were treated with anti-rat CD3 and anti-rat CD28 antibodies (2 μg/mL). JNK inhibitor with SEQ ID NO: 172 was added to the cultures 1 h before CD3/CD28 treatment and IL-2 release was assessed in supernatant 24 h after treatment.
# Control animal were sacrificed, lymph nodes (LN) were harvested and kept in complete RPMI medium. LN were smashed with complete RPMI on 70 μm filter using a 5 ml piston. A few drops of media were added to keep strainer wet. Cells were centrifuged for 7 min at 450 g and 4° c. Pellet was resuspended in 5 ml fresh medium. Cells were passed again through cell strainer. An aliquot of cells was counted, while cells were centrifuged again 10 min at 1400 rpm and 4° c. Cells were resupended in MACS buffer (80 μl of MACS buffer per 10^7 cells). 10 μl of anti-rat MHC microbeads were added per 10 million cells, cells were incubated for 15 min at 4°-8° C. Cells were washed with 15 ml MACS buffer and centrifuge for 7 min at 700 g and 4° C. […] Resuspended cells were counted and plated at density of 200000 cells/well in 100 μl of complete medium. […] Cytokines were then measured using standard Elisa kits. Results are expressed as pg/ml of supernatant of the measured cytokine. […]
compound,measurement,setting,value
"CC(C)C[C@H](NC(=O)[C@H](CC(N)=O)NC(=O)[C@H](CC(C)C)NC(=O)[C@@H](NC(=O)[C@@H](C)NC(=O)[C@@H]1CCCN1C(=O)[C@H](CCCNC(=N)N)NC(=O)[C@@H](CCCCN)NC(=O)[C@@H]1CCCN1C(=O)[C@H](CCCNC(=N)N)NC(=O)[C@@H](CCCNC(=N)N)NC(=O)[C@H](CCCNC(=N)N)NC(=O)[C@H](CCCNC(=N)N)NC(=O)[C@H](CCC(N)=O)NC(=O)[C@@H](CCCNC(=N)N)NC(=O)[C@H](CCCNC(=N)N)NC(=O)[C@H](CCCCN)NC(=O)[C@H](CCCCN)NC(=O)[C@H](N)CCCNC(=N)N)[C@@H](C)O)C(=O)N[C@H](Cc1ccccc1)C(N)=O [SEQ ID NO: 172, rKKRrQRRrRPkRPaTLNLf] (H-[dR]KKR[dR]QRR[dR]RP[dK]RP[dA]TLNL[dF]-NH2; N-terminus assumed)",time until completely degraded,"[1]; human serum (50%; 10 and 50% in PBS 1×), 0.1 mM peptide",14 days
rYKRrQRRr ([dR]YKR[dR]QRR[dR]) [SEQ ID NO: 142],transporter activity,Hela cells,highest transporter activity
dqsrpvqpflnlttprkprpprrrqrrkkrg ([dD][dQ][dS][dR][dP][dV][dQ][dP][dF][dL][dN][dL][dT][dT][dP][dR][dK][dP][dR][dP][dP][dR][dR][dR][dQ][dR][dR][dK][dK][dR]G) [SEQ ID NO: 197],"inhibitory capacity (JNK inhibition, FIG. 4)",His-JNK1,significant decrease in inhibitory capacity in comparison to L-TAT-IB1
same,sensitivity to proteolytic degradation,[1],extremely stable towards proteolytic digestion
same,CD3/CD28-induced IL-2 release,[2],Dose-dependent inhibition
